Assay results taken from patent publication US20110190390A1, “METHODS AND MATERIALS FOR TREATING PANCREATIC CANCER” (priority 2010, published 2011).

How the values were obtained:
Panc-1 cells = assay: In vitro invasion through Matrigel matrix; assay type: cell-based, human; details: 48 hour pre-incubation
Method: (§1) FIG. 13. Aurothiomalate (ATM) inhibits PDAC cells soft agar colony formation and invasion. A) Dose response curves to the growth inhibitory effects of ATM on soft agar colony formation in Panc-1, Capan-1, and MiaPaCa-2 human pancreatic cancer cells. B) Panc-1 cells were pre-incubated in increasing concentrations of ATM and then assayed for in vitro invasion through Matrigel matrix.
(§2) Three PDAC cell lines (Panc-1, Capan-1, and Miapaca-2), expressing varying amounts of PKCι (FIG. 13), were assayed for the ability to form colonies in soft agar (anchorage-independent growth) in the presence of increasing concentrations of aurothiomalate (ATM, FIG. 13A).

[1] = tested on: Panc-1, Capan-1, and MiaPaCa-2 human pancreatic cancer cells; assay: Soft agar colony formation (anchorage-independent growth); assay type: cell-based; details: range over three PDAC cell lines (Panc-1, Capan-1, Miapaca-2); increasing concentrations
Method: as §1
Panc-1 and MiaPaCa-2 cells (5×10^3) were plated in soft agar and assessed for anchorage-independent growth as described elsewhere (Regala et al., J. Biol. Chem., 280:31109-15 (2005)).
as §2

[2] = tested on: mPanINs of P48-Cre; LSL-K-rasG12D mice; assay: mPanIN proliferation by BrdU incorporation (IHC) in P48-Cre; LSL-K-rasG12D mice; assay type: in vivo, mouse; details: 60 mg/kg/day IP x 10 days, mice 7-9 months old, vs untreated age-matched mice, n=3/group
Method: FIG. 18. ATM inhibits proliferation of mPanINs in P48-Cre; LSL-K-ras^G12D mice. Three older P48-Cre; LSL-K-ras^G12D mice (7-9 months of age) were administered ATM (60 mg/kg/day) by IP injection for 10 days. Mice were injected with BrdU prior to sacrifice. Pancreata were isolated and analyzed by IHC for BrdU incorporation, as an indicator of the proliferative activity of the tissue. BrdU incorporation was compared to untreated, age-matched P48-Cre; LSL-K-ras^G12D mice. n=3/group.
(§3) ATM reduced mPanIN proliferation and SHH expression. In order to investigate the potential therapeutic role of ATM in pancreatic cancer, acute ATM treatment (60 mg/kg/day×10 days) of older P48-Cre; LSL-K-rasG12D mice (PC/+, Ras/+; 7-9 months old, they have already developed PanINs and adenomas) was performed. […] These same mice were analyzed for pancreatic expression of SHH. SHH increased in expression in P48-Cre; LSL-K-rasG12D mice, similar to PKCι.

SHH expression = assay: Pancreatic SHH mRNA expression (qPCR) in P48-Cre; LSL-K-rasG12D mice; assay type: in vivo, mouse; details: 60 mg/kg/day IP x 10 days, mice 7-9 months old, vs untreated age-matched mice, n=1/group
Method: FIG. 19. ATM inhibits induction of SHH expression in mPanINs of P48-Cre; LSL-K-ras^G12D mice. Three older P48-Cre; LSL-K-ras^G12D mice (7-9 months of age) were administered ATM (60 mg/kg/day) by IP injection for 10 days. mRNA was isolated from pancreata from treated, and untreated, age-matched P48-Cre; LSL-K-ras^G12D mice and analyzed by qPCR analysid for expression of SHH. n=1/group.
as §3

Compound: O=C(O)CC([S-])C(=O)O.[Au+] (stereo not shown) [ATM, aurothiomalate]
- IC50 (Panc-1 cells): 7.4 µM
- IC50 [1]: 20 to 61 µM
- proliferation in the mPanINs (BrdU incorporation) [2]: significantly reduced
- pancreatic SHH expression (SHH expression): significantly reduced
